The source of these data is the supplement of paper PMC10307832.

Common to all, as to test: relative viability (nuclei count vs DMSO), 5 days (fraction); higher = more cells survive
Compound in assay [1]: C1CNCCC1C2=CC(=NN2)C3=CC=NC=C3 + Cc1nc(Nc2ncc(C(=O)Nc3c(C)cccc3Cl)s2)cc(N2CCN(CCO)CC2)n1 [Dasatinib] (partner 0.075 µM)
The method in brief: (§1)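 Cells from lung cancer lines were seeded into 1536-well plates and, one day later, dosed by pin tool. Treatments were either a single drug or a fixed dose of an anchor drug with five library-drug doses (not always all listed) in √10 steps. After 5 days, nuclei were stained in a one-step fixation (final 0.05% Triton X-100, 1% formaldehyde, 1 ug/ml Hoechst) and counted on 4× images, and relative viability is the treated-to-vehicle nuclei ratio, as the median of duplicate plates.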

Compound in assay [2]: C[C@@H](N)c1ccc(C(=O)Nc2ccnc3[nH]ccc23)cc1 + CC(=O)c1c(C)c2cnc(Nc3ccc(N4CCNCC4)cn3)nc2n(C2CCCC2)c1=O [Palbociclib] (partner 0.5 µM)
The method in brief: as §1

Compound in assay [3]: C[C@@H](N)c1ccc(C(=O)Nc2ccnc3[nH]ccc23)cc1 + CC1(C)CCC(c2ccc(Cl)cc2)=C(CN2CCN(c3ccc(C(=O)NS(=O)(=O)c4ccc(N[C@H](CCN5CCOCC5)CSc5ccccc5)c(S(=O)(=O)C(F)(F)F)c4)cc3)CC2)C1 [Navitoclax] (partner 0.5 µM)
Summed up:
as §1

Compound in the assay “Tanzisertib + AZD7762”: O[C@H]1CC[C@H](Nc2ncc3nc(Nc4c(F)cc(F)cc4F)n([C@H]4CCOC4)c3n2)CC1 [Tanzisertib] + NC(=O)Nc1cc(-c2cccc(F)c2)sc1C(=O)N[C@H]1CCCNC1 [AZD7762] (partner 0.2 µM)
Summed up: as §1

With HARA, the relative viability amounted to 0.217 in assay [1] (first compound 0.08 µM); 0.3 in assay [1] (first compound 0.8 µM); 0.196 in assay [1] (first compound 2.53 µM); 0.187 in assay [1] (first compound 8 µM); 0.292 in assay [2] (first compound 0.04 µM); 0.271 in assay [2] (first compound 0.1265 µM). The relative viability in assay [2] (first compound 0.4 µM) stood at 0.28; in assay [2] (first compound 1.265 µM), 0.214; in assay [2] (first compound 4 µM) it was 0.248; in assay [3] (first compound 0.04 µM) it was 1.14; in assay [3] (first compound 0.1265 µM), 1.2; in assay [3] (first compound 0.4 µM), 1.19. In addition, the relative viability amounted to 1.27 in assay [3] (first compound 1.265 µM); 0.889 in assay [3] (first compound 4 µM); 0.288 with Tanzisertib + AZD7762 (first compound 0.08 µM); 0.358 with Tanzisertib + AZD7762 (first compound 0.253 µM); 0.337 in the assay with Tanzisertib + AZD7762 (first compound 0.8 µM); 0.286 with Tanzisertib + AZD7762 (first compound 2.53 µM). Moreover, the relative viability in the assay with Tanzisertib + AZD7762 (first compound 8 µM) worked out at 0.275.
As for HCC-15, the relative viability was 0.556 in assay [1] (first compound 0.08 µM); 0.646 in assay [1] (first compound 0.8 µM); 0.639 in assay [1] (first compound 2.53 µM); 0.609 in assay [1] (first compound 8 µM); 0.705 in assay [2] (first compound 0.04 µM); 0.704 in assay [2] (first compound 0.1265 µM). Further, the relative viability is 0.704 in assay [2] (first compound 0.4 µM); 0.694 in assay [2] (first compound 1.265 µM); 0.674 in assay [2] (first compound 4 µM); 0.712 in assay [3] (first compound 0.04 µM); 0.689 in assay [3] (first compound 0.1265 µM); 0.738 in assay [3] (first compound 0.4 µM). For the same cell line, the relative viability worked out at 0.645 in assay [3] (first compound 4 µM); 1.23 with Tanzisertib + AZD7762 (first compound 0.08 µM); 1.25 with Tanzisertib + AZD7762 (first compound 0.253 µM); 1.22 with Tanzisertib + AZD7762 (first compound 0.8 µM); 1.13 with Tanzisertib + AZD7762 (first compound 2.53 µM); 1 in the assay with Tanzisertib + AZD7762 (first compound 8 µM).
As for HCC-44, the relative viability in assay [2] (first compound 0.04 µM) is 0.929; in assay [2] (first compound 0.1265 µM) it was 0.96; in assay [2] (first compound 0.4 µM) it was 1.02; in assay [2] (first compound 1.265 µM), 1.15; in assay [2] (first compound 4 µM), 1.02; in assay [3] (first compound 0.04 µM) it was 0.979. Also, the relative viability amounted to 0.99 in assay [3] (first compound 0.1265 µM); 1.15 in assay [3] (first compound 0.4 µM); 0.946 in assay [3] (first compound 1.265 µM); 0.698 in assay [3] (first compound 4 µM); 0.987 with Tanzisertib + AZD7762 (first compound 0.08 µM); 1.05 with Tanzisertib + AZD7762 (first compound 0.253 µM). Moreover, the relative viability with Tanzisertib + AZD7762 (first compound 0.8 µM) turned out to be 0.997; with Tanzisertib + AZD7762 (first compound 2.53 µM), 1.01; in the assay with Tanzisertib + AZD7762 (first compound 8 µM) it was 1.15.
For HCC-78, the relative viability in assay [1] (first compound 0.08 µM) is 0.352; in assay [1] (first compound 0.8 µM) it was 0.257; in assay [1] (first compound 2.53 µM) it was 0.356; in assay [1] (first compound 8 µM), 0.369; in assay [2] (first compound 0.04 µM), 0.456; in assay [2] (first compound 0.1265 µM) it was 0.45. For the same cell line, the relative viability in assay [2] (first compound 0.4 µM) was determined as 0.544; in assay [2] (first compound 4 µM), 0.482; in assay [3] (first compound 0.04 µM), 1.08; in assay [3] (first compound 0.1265 µM), 0.79; in assay [3] (first compound 0.4 µM) it was 1.2; in assay [3] (first compound 1.265 µM), 1.11. Besides, the relative viability was 0.782 in assay [3] (first compound 4 µM); 0.694 in the assay with Tanzisertib + AZD7762 (first compound 0.08 µM); 0.723 in the assay with Tanzisertib + AZD7762 (first compound 0.253 µM); 0.634 with Tanzisertib + AZD7762 (first compound 0.8 µM); 0.474 in the assay with Tanzisertib + AZD7762 (first compound 2.53 µM); 0.5 with Tanzisertib + AZD7762 (first compound 8 µM).
Regarding HCC-366, the relative viability was determined as 0.405 in assay [1] (first compound 0.08 µM); 0.898 in assay [1] (first compound 0.8 µM); 0.618 in assay [1] (first compound 2.53 µM); 0.594 in assay [1] (first compound 8 µM); 0.474 in assay [2] (first compound 0.04 µM); 0.392 in assay [2] (first compound 0.1265 µM). Also, the relative viability was found to be 0.379 in assay [2] (first compound 0.4 µM); 0.455 in assay [2] (first compound 1.265 µM); 0.383 in assay [2] (first compound 4 µM); 1.04 in assay [3] (first compound 0.04 µM); 1.15 in assay [3] (first compound 0.1265 µM); 1.16 in assay [3] (first compound 0.4 µM). Besides, the relative viability amounted to 0.923 in assay [3] (first compound 4 µM); 0.316 in the assay with Tanzisertib + AZD7762 (first compound 0.253 µM); 0.277 in the assay with Tanzisertib + AZD7762 (first compound 0.8 µM); 0.192 with Tanzisertib + AZD7762 (first compound 2.53 µM); 0.286 with Tanzisertib + AZD7762 (first compound 8 µM).
